Data reported in patent publication US4115587A, “Fatty acid amides of norfenfluramine and compositions and methods thereof” (A. H. Robins Company, Inc., priority 1976, dated 1978).
Where two headings read alike, the source gives them in different places.

How the values were obtained:
[1] = test system: Serum Triglycerides and Cholesterol; assay: Triton-induced hyperlipidemia test (Table 1); format: in vivo, male Sprague-Dawley rats; details: Test Group IV, 140 mg/kg p.o.; for % Change Cholesterol / % Change Triglycerides: vs control; for Serum Cholesterol / Serum Triglycerides: ± SD
Method: Fasted, male Sprague-Dawley rats weighing 250-350 g were fed ad libitum a commercial lab chow with free access to water. The animals were fasted overnight and administered Triton-WR-1339 (produced by Ruger Chemical Company, Inc., Irvington, New Jersey) as described by Schurr et al.; Lipids 7 68(1972) except the procedure was modified to use the saphenous vein and divided doses of 70 mg/kg. The rats were anesthetized with sodium pentobarbital and terminally bled by heart puncture. Serum was stored at -20° C. until it was analyzed for total cholesterol and triglycerides. Comparison was also made with clofibrate.

[2] = test system: β-Sterol Synthesis, Ileum; assay: β-Sterol synthesis, acetate-1-14C incorporation, ileum (Table 8); format: in vivo, male Sprague-Dawley rats
Method: (§1) The effect of the mixed amides of Example 5 and reference compounds on β Sterol synthesis was determined by a modified procedure of Hill and Dvornik Arch. Biochem. Biophys. 114 (1966), 88. Male Sprague-Dawley rates weighing 127-175 g. were freely provided a basal semi-purified diet and water. The rats were housed in cages with raised wire floors in a room kept at a temperature of 24°-26° C. with a 12-hour day-12-hour night cycle. The cycle was reversed so the night cycle corresponded to the working day to take advantage of the circadian rhythm that favors cholesterol synthesis. The test period was five days and 20 μCi sodium acetate-1-^14 C (Sp. act. 56 mCi/m mole) administered intraperitoneally. Animals were sacrificed under carbon dioxide and the distal 10 cm of the ileum as well as the median and left liver lobes excised and homogenized. Subsequently, the β Sterols were isolated as the digitonide and the radioactivity determined in a Packard Tricarb Liquid Scintillation Spectrometer Model 3385 using 0.5% 2,5 diphenyloxazole and 8% naphthalene in a solvent mixture of 40% toluene, 40% dioxane and 20% absolute ethanol. Data for the effect of the mixed amides of Example 5 on the synthesis of nonsaponifiable substances and β Sterols as determined by the Digitonide method are shown in Table 8. […] A prior art compound, α-methylbenzyllinoleamide at 140 mg/kg, p.o. had no effect on cholesterol synthesis in either tissue.

[3] = Dietary-induced hyperlipemia test, basal semi-purified diet: liver weight, body weight, food consumption (Table 2); format: in vivo, male Sprague-Dawley rats; details: .2% in food
Method: (§2) General feeding experiments were conducted on rats to determine the effect of the amides of this invention on serum and liver lipids of animals fed a basal diet and a basal diet supplemented with cholesterol. In addition, the effect of these drugs on serum lipoproteins was studied as well as their effect on body weight, gross feed efficiency, liver weight, appetite and energy utilization with respect to their metabolic size. Male, Sprague-Dawley rats weighing 150-175 g. were housed in cages with raised wire floors in a room kept at a temperature of 24°-26° C. with a 12-hour day and 12-hour night cycle, fed ad libitum a semipurified diet consisting by weight % composition: vitamin-free casein, 20; glucose, 63; hydrogenated coconut oil, 10; GBI Vitamin Fortification Mixture, Cat. #40060 obtained from General Biochemical Company of Chargrin Falls, Ohio, 1; modified salt mix of Williams and Briggs, Cat. #170911 obtained from General Biochemical Company, 4; and cellulose, 2; and watered. The modified salt mix provided the following amounts in grams of elements per Kg. of diet:
(§3) Diets were supplemented with 0.5% cholic acid, 1% cholesterol, and drug at the expense of glucose. The experimental period was 18-21 days with body weight and food measured at specified intervals. Animals were fasted overnight and terminally bled by cardiac puncture. Blood was anti-coagulated with ethylenediamine tetracetic acid and plasma was separated by centrifugation, and stored at -20° C. Livers were excised, weighed, and stored at -20° C. All samples remained at this temperature until they were analyzed for total lipids, total cholesterol, triglycerides and phospholipids. Gross feed efficiency together with the effect of metabolic size on food intake and the effect of drug on energy utilization were determined.
(§4) Results of testing the mixed amides of Example 5 and reference compounds in rats on a basal diet according to the foregoing procedure for dietary induced hyperlipemia are in Tables 2 and 3.

[4] = rats; seemed to be caused by reduced feed intake; cited from earlier work
[5] = test system: Serum and Liver Lipids; assay: Dietary-induced hyperlipemia test, basal diet with cholesterol: serum and liver lipids (Table 5); format: in vivo, male Sprague-Dawley rats; details: .2% in food, ± S.D.
Method: as §2, §3
(§5) Results of testing the mixed amides of Example 5 an reference compounds in rats on a basal diet with added cholesterol according to the foregoing procedure for dietary induced hyperlipemia are in Tables 4 and 5.

[6] = test system: Serum and Liver Lipids; assay: Dietary-induced hyperlipemia test, basal semi-purified diet: serum and liver lipids (Table 3); format: in vivo, male Sprague-Dawley rats; details: .2% in food, ± S.D.
Method: as §2, §3, §4

[7] = format: in vivo, male Sprague-Dawley rats; details: cholesterol diet, .2% in food
Method: as §2, §3, §5

[8] = test system: β-Sterol Synthesis, Liver; assay: β-Sterol synthesis, acetate-1-14C incorporation, liver (Table 8); format: in vivo, male Sprague-Dawley rats
Method: as §1

[9] = test system: Serum Lipoproteins; assay: Serum lipoproteins of rats fed semi-purified diet supplemented with cholesterol (Table 7); format: in vivo; details: .2% in food
Method: as §2, §3
^a VLDL, very low density lipoproteins; LDL, low density lipoproteins
and HDL, high density lipoproteins as determined on a Beckman-Gilford

Q: With `CCCCCCCC/C=C/CCCCCCCC(=O)NC(C)Cc1cccc(C(F)(F)F)c1` (stereo not drawn) [Ex.3, N-[1-methyl-2-(3-trifluoromethylphenyl)ethyl]octadec-9-enamide trans isomer] as the molecule, how does the “% Change Cholesterol” value [1] read?
A: Its value is -25%.

Q: What about the “% Change Triglycerides” value [1] of the same molecule?
A: The value was -58%.

Q: And the “Serum Cholesterol” value [1]?
A: Its value is 210.0 ± 47.8 mg/100 ml.

Q: What about the “Serum Triglycerides” value [1] of the same molecule?
A: The value was 260.0 ± 137.8 mg/100 ml.

Q: For `CCCCC/C=C\C/C=C\CCCCCCCC(=O)NC(C)c1ccccc1` (stereo not drawn) [α-methylbenzyl linoleamide], which “Acetate-1-14C incorporated, Digitonide” value ([2]; Ileum, 140 mg/kg p.o., ± S.D.) is on record?
A: The value was 5.947 ± .654 n moles/g tissue.

Q: What about the “Acetate-1-14C incorporated, Non-saponifiable” value ([2]; Ileum, 140 mg/kg p.o., ± S.D.) of the same molecule?
A: The value was 7.648 ± 1.664 n moles/g tissue.

Q: And the “effect on cholesterol synthesis” value ([2]; ileum, 140 mg/kg, p.o.)?
A: Its value is “no effect”.

Q: What about the “Food Consumed” value [3] of the same molecule?
A: The value was 331 g.

Q: What about the “Gross Feed Efficiency” value ([3]; gross weight gain in grams/total food consumed in grams) of the same molecule?
A: The value was “.210”.

Q: What about the “Body wt, Final” value ([3]; ± S.D.) of the same molecule?
A: The value was 226 ± 30 g.

Q: And the “Liver wt per 100 g body wt.” value ([3]; ± S.D.)?
A: Its value is 2.9 ± .3 g.

Q: And the “Liver wt, Total” value ([3]; ± S.D.)?
A: Its value is 6.7 ± .8 g.

Q: And the “gain in body weight” value [4]?
A: The value was “did suppress gain in body weight”.

Q: And the “Liver Triglycerides” value [5]?
A: Its value is 4.35 ± 2.88 mg/g.

Q: And the “Serum Cholesterol” value ([5]; p<.05 for Ex. 5)?
A: The value was 197.75 ± 23.24 mg/100 ml.

Q: And the “Liver Cholesterol” value ([5]; p<.05 for all)?
A: Its value is 8.33 ± 1.37 mg/g.

Q: And the “Liver Lipids, Total” value ([5]; p<.05 for all)?
A: The value was 84.00 ± 14.26 mg/g.

Q: And the “Serum Lipids, Total” value ([5]; p<.05 for all)?
A: Its value is 453.25 ± 90.58 mg/100 ml.

Q: And the “Serum Triglycerides” value ([5]; p<.05 for clofibrate)?
A: Its value is 262.50 ± 51.88 mg/100 ml.

Q: What about the “Liver Cholesterol” value [6] of the same molecule?
A: The value was 3.34 ± .24 mg/g.

Q: And the “Liver Lipids, Total” value [6]?
A: The value was 40.05 ± 11.37 mg/g.

Q: What about the “Liver Triglycerides” value [6] of the same molecule?
A: Its value is 4.85 ± 2.71 mg/g.

Q: What about the “Serum Cholesterol” value [6] of the same molecule?
A: Its value is 77.50 ± 3.91 mg/100 ml.

Q: What about the “Serum Lipids, Total” value [6] of the same molecule?
A: Its value is 199.80 ± 60.9 mg/100 ml.

Q: And the “Serum Triglycerides” value [6]?
A: The value was 72.33 ± 29.92 mg/100 ml.

Q: What about the “Food Consumed” value [7] of the same molecule?
A: Its value is 311 g.

Q: And the “Gross Feed Efficiency” value ([7]; gross weight gain/total food consumed in grams)?
A: The value was “.177”.

Q: And the “Body wt, Final” value ([7]; ± S.D.)?
A: Its value is 192 ± 25 g.

Q: What about the “Liver wt per 100 g body wt.” value ([7]; ± S.D.) of the same molecule?
A: The value was 3.7 ± .2 g.

Q: And the “Liver wt, Total” value ([7]; ± S.D.)?
A: Its value is 7.1 ± 1.3 g.

Q: What about the “Acetate-1-14C incorporated, Digitonide” value ([8]; Liver, 140 mg/kg p.o., ± S.D.) of the same molecule?
A: The value was 3.882 ± 2.887 n moles/g tissue.

Q: And the “Acetate-1-14C incorporated, Non-saponifiable” value ([8]; Liver, 140 mg/kg p.o., ± S.D.)?
A: The value was 4.533 ± 3.131 n moles/g tissue.

Q: What about the “effect on cholesterol synthesis” value ([8]; liver, 140 mg/kg, p.o.) of the same molecule?
A: The value was “no effect”.

Q: And the “Albumin, Percentage Composition” value [9]?
A: Its value is 15.65%.

Q: What about the “HDL, Percentage Composition” value [9] of the same molecule?
A: Its value is 29.62%.

Q: And the “LDL, Percentage Composition” value [9]?
A: Its value is 18.51%.

Q: And the “VLDL, Percentage Composition” value [9]?
A: Its value is 36.19%.

Q: With `CCCCCCCC/C=C\CCCCCCCC(=O)NC(C)Cc1cccc(C(F)(F)F)c1` (stereo not drawn) [Ex.2, N-[1-methyl-2-(3-trifluoromethylphenyl)ethyl]octadec-9-enamide cis isomer] as the molecule, how does the “% Change Cholesterol” value [1] read?
A: Its value is -39%.

Q: And the “% Change Triglycerides” value [1]?
A: Its value is -73%.

Q: And the “Serum Cholesterol” value [1]?
A: Its value is 173.3 ± 10.2 mg/100 ml.

Q: What about the “Serum Triglycerides” value [1] of the same molecule?
A: The value was 166.3 ± 37.2 mg/100 ml.
